{"source": "patent US20190321493A1", "about": "“MATERIALS AND METHODS FOR TREATING REGIONAL PAIN” (priority 2016, published 2019)", "key": {"[1]": {"assay": "Drug distribution in DRG after convection enhanced delivery of DAPI", "assay_type": "in vivo, swine", "settings": "FIG. 5", "description": "FIGS. 5A-5C illustrate drug distribution in swine DRG. […] is a schematic of convection enhanced delivery (CED) needle placement in a DRG. FIG. 5B contains an image of a control DRG. FIG. 5C contains an image of a 4′,6-diamidino-2-phenylindole (DAPI) injected DRG.\nAn incision was made in the overlying skin at an anatomical level affected by pain in a patient. The subcutaneous fat and musculature were incised and reflected, exposing the bony lamina. Using appropriate instruments, a portion of the lamina was removed to expose the neural elements. The meningeal sleeve surrounding the DRG and spinal nerve was surgically exposed by microdissection of bone and tissue, which may require extending the laminectomy dissection, using standard techniques such as blunt or sharp dissection with meticulous hemostasis. Thereby the DRG was exposed and grossly visualized. A convection enhanced delivery needle was placed into the exposed DRG. RTXcap was injected in a preparation that also contains a contrast agent (e.g., in this case DAPI) allowing direct visualization of analgesic agent injection by eye sight with or without a surgical loupe or surgical operating microscope."}, "[2]": {"tested_on": "nociceptive neurons of the dorsal root ganglion (DRG)", "assay": "MRI-guided intraganglionic injection of RTX (RTXcap) with gadoteridol into swine DRG, substance P immunohistochemistry", "assay_type": "in vivo", "description": "FIGS. 1A-1D are fluorescent immunohistochemistry (IHC) images. […] Nociceptive fibers in all panels are visualized using the biomarker substance P (sP).\nFIGS. 2A-2C are fluorescent IHC images of a DRG. […] The outcomes in FIG. 2B and FIG. 2C were predicted from intraprocedural imaging performed during RTX delivery (noted as a success (B) and failure (C) to achieve the intended contrast media dispersion).\nDomestic swine were chosen because the porcine lumbar spinal column resembles the human lumbosacral anatomy. Swine were sedated with Telazol and Xylazine, intubated and kept under deep isoflurane inhalation anesthesia for the duration of the procedure titrated to effect. Swine were placed in an MRI scanner (GE 3T, GE Healthcare). Overview MRI imaging was obtained of the lumbosacral spine. DRG at the L4, L5, S1, and S2 level were outlined (FIG. 1A).\nThe guide needle was passed through the skin lateral to the midline and incrementally advanced ventromedially toward the DRG intraprocedural MRI imaging monitored advancement of the needle, and any deviations from the optimal trajectory were corrected. When the needle tip was visualized directly adjacent to the dorsal aspect of the DRG, the stylet of the guide needle was withdrawn. The stepped stylet was then inserted through the guide needle. The length of the stepped stylet exceeded the length of the guide needle and therefore only the stepped tip of the stylet but not the Quincke tip of the guide needle penetrated the DRG parenchyma. The stepped stylet was then withdrawn and replaced by the stepped needle. The prior insertion of the stepped stylet prevented clogging of the narrow needle tip. RTX 5 μg and gadoteridol 1% V/V was injected in a volume of 50 μl per DRG over a period of 5 minutes (RTX was solubilized in water with sulfobutyl ether β-cyclodextrin, designated as RTXcap). MRI imaging verified when the injection was successful and when the injection needed to be repeated (FIG. 4). Pigs were sacrificed 5 weeks post injection and the tissues harvested for histopathological analysis."}, "[3]": {"tested_on": "nociceptive fibers in the dorsal horn of the spinal cord", "assay": "Periganglionic (epidural) injection of RTX, immunohistochemistry of spinal cord dorsal horn", "assay_type": "in vivo, swine", "settings": "FIG. 3B vs 3A"}}, "data": [{"smiles": "N=C(N)c1ccc(-c2cc3ccc(C(=N)N)cc3[nH]2)cc1", "note": "[DAPI, 4′,6-diamidino-2-phenylindole]", "values": [{"measurement": "distribution in DRG", "setting": "[1]", "value": "good distribution throughout the DRG"}]}, {"smiles": "C=C(C)[C@]12C[C@@H](C)[C@@]34O[C@](Cc5ccccc5)(O[C@@H]1[C@@H]3C=C(COC(=O)Cc1ccc(O)c(OC)c1)C[C@]1(O)C(=O)C(C)=C[C@@H]41)O2", "note": "[RTX, resiniferatoxin]", "values": [{"measurement": "neurolysis of the targeted tissue", "setting": "[2]; RTX 5 μg + gadoteridol 1% V/V, 50 μl per DRG, tissues 5 weeks post injection", "value": "can result in neurolysis of the targeted tissue"}, {"measurement": "nociceptive neurons (sP fluorescence) in DRG", "setting": "[2]; after failed image-guided injection, FIG. 2C", "value": "normal numbers of nociceptive neurons"}, {"measurement": "nociceptive neurons (sP fluorescence) in DRG", "setting": "[2]; after successful MRI-guided injection, FIG. 2B", "value": "elimination of most nociceptive neurons"}, {"measurement": "nociceptive fibers (substance P) in the dorsal horn of the spinal cord", "setting": "[2]; intraganglionic injection, RTX solubilized in water with sulfobutyl ether β-cyclodextrin, FIG. 1B vs 1A", "value": "elimination of nociceptive fibers"}, {"measurement": "nociceptive fibers (substance P) in the dorsal root ganglion", "setting": "[2]; intraganglionic injection, RTX solubilized in water with sulfobutyl ether β-cyclodextrin, FIG. 1D vs 1C", "value": "elimination of nociceptive fibers"}, {"measurement": "nociceptive fibers in the dorsal horn of the spinal cord", "setting": "[3]", "value": "elimination of nociceptive fibers"}]}]}
